Assay results from the supplement of paper PMC10307832.

Key:
Assay in all cases: relative viability (nuclei count vs DMSO), 5 days (fraction); higher = more cells survive
Irinotecan + Foretinib = compound: CCc1c2c(nc3ccc(OC(=O)N4CCC(N5CCCCC5)CC4)cc13)-c1cc3c(c(=O)n1C2)COC(=O)[C@]3(O)CC [Irinotecan] + COc1cc2c(Oc3ccc(NC(=O)C4(C(=O)Nc5ccc(F)cc5)CC4)cc3F)ccnc2cc1OCCCN1CCOCC1 [Foretinib] (partner 0.25 µM)
In short: (§1)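 A single step with final 0.05% Triton X-100, 1% formaldehyde and 1 ug/ml Hoechst fixed the cells and stained nuclei 5 days after treatment. Lung cancer cell lines in 1536-well plates had been treated by pin tool the day after seeding with one drug alone or a fixed anchor-drug dose plus five library-drug doses (not always all listed) in √10 steps, and nuclei were counted on 4× images. Relative viability is the ratio of nuclei in treated wells to nuclei in vehicle wells, taken as the median of duplicate plates.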

RU-SKI 43 + Foretinib = compound: CC[C@@H](C)CNCC(=O)N1CCC2=C([C@@H]1COC3=CC=CC(=C3)C)C=CS2 [RU-SKI 43] + COc1cc2c(Oc3ccc(NC(=O)C4(C(=O)Nc5ccc(F)cc5)CC4)cc3F)ccnc2cc1OCCCN1CCOCC1 [Foretinib] (partner 0.25 µM)
In short: as §1

Irinotecan + Luminespib = compound: CCc1c2c(nc3ccc(OC(=O)N4CCC(N5CCCCC5)CC4)cc13)-c1cc3c(c(=O)n1C2)COC(=O)[C@]3(O)CC [Irinotecan] + CCNC(=O)c1noc(-c2cc(C(C)C)c(O)cc2O)c1-c1ccc(CN2CCOCC2)cc1 [Luminespib] (partner 0.01 µM)
In short: as §1

MK-8033 + AZD7762 = compound: Cn1cc(-c2cnc3ccc4ccc(CS(=O)(=O)NCc5ccccn5)cc4c(=O)c3c2)cn1 [MK-8033] + NC(=O)Nc1cc(-c2cccc(F)c2)sc1C(=O)N[C@H]1CCCNC1 [AZD7762] (partner 0.2 µM)
In short: as §1

| Cell Line | relative viability (Irinotecan + Foretinib; first compound 0.6325 µM) | relative viability (Irinotecan + Foretinib; first compound 2 µM) | relative viability (Irinotecan + Foretinib; first compound 6.325 µM) | relative viability (Irinotecan + Foretinib; first compound 20 µM) | relative viability (RU-SKI 43 + Foretinib; first compound 0.1 µM) | relative viability (RU-SKI 43 + Foretinib; first compound 0.3162 µM) | relative viability (RU-SKI 43 + Foretinib; first compound 1 µM) | relative viability (RU-SKI 43 + Foretinib; first compound 3.162 µM) | relative viability (RU-SKI 43 + Foretinib; first compound 10 µM) | relative viability (Irinotecan + Luminespib; first compound 0.6325 µM) | relative viability (Irinotecan + Luminespib; first compound 2 µM) | relative viability (Irinotecan + Luminespib; first compound 6.325 µM) | relative viability (Irinotecan + Luminespib; first compound 20 µM) | relative viability (MK-8033 + AZD7762; first compound 0.02 µM) | relative viability (MK-8033 + AZD7762; first compound 0.06325 µM) | relative viability (MK-8033 + AZD7762; first compound 0.2 µM) | relative viability (MK-8033 + AZD7762; first compound 0.6325 µM) | relative viability (MK-8033 + AZD7762; first compound 2 µM) |
| --- | --- | --- | --- | --- | --- | --- | --- | --- | --- | --- | --- | --- | --- | --- | --- | --- | --- | --- |
| NCI-H460 | 0.815 | 0.418 | 0.136 | 0.0629 | 0.923 | 1.16 | 1.09 | 1.13 | 0.97 | 0.019 | 0.0388 | 0.0428 | 0.047 | 0.77 | 0.673 | 0.571 | 0.505 | 0.598 |
| PC-14 | 0.935 | 0.806 | 0.431 | 0.189 | 0.872 | 1.15 | 1.02 | 1.07 | 0.909 | 0.11 | 0.326 | 0.321 | 0.252 | 0.357 | 0.296 | 0.351 | 0.302 | 0.354 |
| NCI-H1734 |  | 0.52 | 0.193 | 0.187 | 0.844 | 0.913 | 0.938 | 0.781 | 0.656 |  | 0.203 | 0.222 | 0.353 | 0.544 | 0.361 | 0.522 | 0.572 | 0.54 |
| NCI-H727 | 0.65 | 0.501 | 0.477 | 0.379 | 1.11 | 0.879 | 1.2 | 1.07 | 0.863 | 0.271 | 0.455 | 0.501 | 0.494 | 0.697 | 0.614 | 0.519 | 0.758 | 0.574 |
| HOP-62 | 0.7 | 0.256 | 0.199 | 0.195 | 1.1 | 1.2 | 1.15 | 1.24 | 1.13 | 0.254 | 0.361 | 0.203 | 0.21 | 0.67 | 0.722 | 0.464 | 0.471 | 0.578 |
| NCI-H2405 |  | 0.897 | 0.394 | 0.307 | 1.08 | 1.03 | 1.04 | 1.09 | 1.05 |  | 0.606 | 0.312 | 0.262 | 0.807 | 0.734 | 0.638 | 0.701 | 0.742 |
| NCI-H2342 | 1.17 | 0.928 | 0.826 | 0.525 | 0.967 | 1.09 | 1.01 | 1.06 | 1.02 | 0.756 | 0.676 | 0.572 | 0.485 | 0.636 | 0.438 | 0.454 | 0.454 | 0.646 |
| A-427 |  | 0.24 | 0.229 | 0.219 | 1.14 | 1.03 | 1.13 | 1.11 | 0.969 |  | 0.574 | 0.306 | 0.166 | 0.791 | 0.634 | 0.692 | 0.775 | 0.728 |
| LCLC-97TM1 | 0.435 | 0.172 | 0.151 | 0.194 | 0.945 | 0.938 | 1.05 | 1 | 1.04 | 0.228 | 0.208 | 0.148 | 0.181 | 0.248 | 0.338 | 0.268 | 0.227 | 0.222 |
| NCI-H3122 | 0.833 | 0.236 | 0.183 | 0.171 | 0.941 | 1.05 | 1 | 0.994 | 0.972 | 0.0615 | 0.114 | 0.0849 | 0.109 | 0.931 | 0.886 | 0.965 | 1.06 | 0.977 |
| RERF-LC-KJ | 0.956 | 0.815 | 0.518 | 0.411 | 0.849 | 0.976 | 0.812 | 0.959 | 0.913 | 0.692 | 0.567 | 0.461 | 0.224 | 0.984 | 0.84 | 1.01 | 0.981 | 0.942 |
| NCI-H2170 | 1.01 | 0.616 | 0.252 | 0.214 | 0.994 | 1.13 | 1.07 | 1.09 | 0.975 | 0.601 | 0.498 | 0.168 | 0.188 | 0.733 | 0.768 | 0.829 | 0.828 | 0.848 |
| ABC-1 |  | 0.617 | 0.28 | 0.152 | 1.04 | 1.05 | 1.04 | 1.06 | 0.754 |  | 0.528 | 0.352 | 0.269 | 0.86 | 0.709 | 0.475 | 0.874 | 1.06 |
| HCC-15 |  | 0.695 | 0.23 | 0.161 | 1.1 | 1.17 | 1.16 | 1.11 | 1.04 |  | 0.234 | 0.121 | 0.126 | 1.06 | 1.31 | 0.978 | 1.31 | 1.18 |
| NCI-H1793 |  | 0.501 | 0.226 | 0.185 | 0.602 | 0.68 | 0.738 | 0.762 | 0.502 |  | 0.193 | 0.192 | 0.262 | 0.442 |  | 0.331 | 0.413 | 0.328 |
| H3255 | 0.398 | 0.558 | 0.36 | 0.305 | 0.914 | 0.83 | 0.817 | 0.708 | 0.841 | 0.435 | 0.707 | 0.385 | 0.448 | 0.932 | 0.724 | 0.793 | 0.788 | 0.899 |
| NCI-H1666 | 0.774 | 0.689 | 0.654 | 0.404 | 0.922 | 0.96 | 0.926 | 0.773 | 0.848 | 0.858 | 0.721 | 0.658 | 0.331 | 0.839 | 0.771 | 0.814 | 0.873 | 0.996 |
| 201T |  | 0.991 | 0.53 | 0.151 | 1.04 | 1.11 | 1.12 | 1.07 | 1.01 |  | 0.547 | 0.313 | 0.342 | 0.7 | 0.481 | 0.607 | 0.683 | 0.618 |
| LK-2 | 1.25 | 0.329 | 0.305 | 0.283 | 1.28 | 1.13 | 1.27 | 1.46 | 1.05 | 0.162 | 0.224 | 0.264 | 0.327 | 0.454 | 0.288 | 0.316 | 0.363 | 0.427 |
| NCI-H1755 | 0.9 | 0.667 | 0.35 | 0.462 | 0.935 | 1.07 | 0.975 | 0.979 | 0.919 | 0.433 | 0.415 | 0.299 | 0.241 | 0.487 | 0.35 | 0.384 | 0.401 | 0.452 |
| LOU-NH91 | 0.871 | 0.756 | 0.374 | 0.294 | 0.953 | 0.912 | 0.914 | 1.01 | 0.897 | 0.371 | 0.323 | 0.301 | 0.28 | 0.816 | 0.624 | 0.76 | 0.807 | 0.814 |
| NCI-H1975 | 0.816 | 0.964 | 0.385 | 0.158 | 1.09 | 1.28 | 1.01 | 0.922 | 0.939 | 0.107 | 0.201 | 0.175 | 0.235 | 0.72 | 0.777 | 0.691 | 0.617 | 0.689 |
| NCI-H650 | 0.981 | 0.774 | 0.226 | 0.15 | 1.05 | 1.02 | 1.1 | 1.09 | 1.08 | 0.635 | 0.322 | 0.139 | 0.199 | 0.947 | 0.997 | 0.982 | 0.945 | 0.985 |
| NCI-H441 | 0.786 | 0.66 | 0.29 | 0.342 | 0.981 | 1.01 | 1.09 | 1.04 | 0.842 | 0.231 | 0.332 | 0.304 | 0.309 | 1 | 1.09 | 1.24 | 0.984 | 0.94 |
| NCI-H1944 | 0.655 | 0.351 | 0.198 | 0.18 | 0.812 | 0.878 | 0.918 | 1.01 | 0.819 | 0.557 | 0.312 | 0.167 | 0.149 | 0.549 | 0.377 | 0.525 | 0.497 | 0.561 |
| NCI-H838 | 1.11 | 0.743 | 0.392 | 0.298 | 1.15 | 0.994 | 0.987 | 1.21 | 0.964 | 0.23 | 0.262 | 0.213 | 0.266 | 0.904 | 0.92 | 0.945 | 0.901 | 0.862 |
